Results: patent publication US20250177481A1, “SCO-spondin-derived polypeptides for enhancing synaptic transmission” (AXOLTIS PHARMA, priority 2021, published 2025)
Several values for one entry are separate records, joined by “and”; a condition that tells them apart may be missing. Identical values can stand only once. Positions of bridges follow the written chain, without caps; N, C: chain ends. No end group written: not given here.

Assays:
[1] = system: thalamocortical synaptic response (ventrobasal thalamic nucleus to somatosensory cortex); assay: fEPSP input-output (I/O) recordings in thalamocortical mouse brain slices; format: cell-based, C57Bl6/J mice; details: for Normalized fEPSP slope: % of max of vehicle I/O curve, mean of 10 slices
Description: Comparison of postsynaptic responses in control versus NX218 peptide conditions were assessed.
Five (C57Bl6/J) male mice 4-5 weeks-old were obtained from Charles River, France and housed in an animal facility. Animal care was compliant with national and local Ethics committee recommendations. Mice were deeply anesthetized by inhalation of isoflurane then decapitated. The dissected brain was quickly placed in ice-cold oxygenated (95% O2/5% CO2) solution containing 214 mM sucrose, 2.5 mM KCl, 1.25 mM NaH2PO4, 26 mM NaHCO3, 2 mM MgSO4, 2 mM CaCl2 and 10 mM D-glucose.
10 Thalamocortical slices (2 slices per mouse) were prepared as described in Agmon and Connors (1991) and Varela et al. (2013). After its recovery, the brain was placed on a support allowing to elevate the caudal part of the brain until dorsal surface forms a 10-degree angle with the horizontal plane. Then, a section at 55 degrees with respect to the midline was performed and the rostral part was removed. In the slicing chamber, the brain was glued on the sectioned face. Then, the brain was sliced with a thickness of 400 μm. Slices were immediately transferred to a holding chamber filled with an artificial cerebrospinal fluid (aCSF) composed by 124 mM NaCl, 2.5 mM KCl, 1.25 mM NaH2PO4, 26 mM NaHCO3, 2 mM MgSO4, 2 mM CaCl2 and 10 mM D-glucose. The holding chamber was continuously oxygenated and maintained at 35° C. After a recovery period of 30 min, slices were incubated at room temperature for a minimum of 30 min.
For electrophysiological recordings, a single slice was placed in the recording chamber (room temperature) submerged and continuously superfused at a constant rate (2 mL/min) with gassed (95% O2, 5% CO2) aCSF for the reminder of the experiment.
A bipolar tungsten stimulating electrode was placed in the ventrobasal nucleus of the thalamus (the ventrobasal nucleus of the thalamus contains mostly glutamatergic neurons and few GABAergic interneurons) and extracellular field potential was recorded in the somatosensory cortex using a glass microelectrode.
Synaptic transmission Input/Output (I/O) curves were constructed to assess changes in the synaptic transmission, using a range of stimulus intensities from 0 μA to 850 μA with 50 μA intervals. Increasing stimulation intensities results in a linear increase until a maximal plateau in vehicle conditions.
Signals were amplified with an Axopatch 200B amplifier (Molecular Devices, Union City, CA) digitized by a Digidata 1322A interface (Axon Instruments, Molecular Devices, US) and sampled at 10 kHz. Recordings were acquired using Clampex (Molecular Devices) and analyzed with Clampfit (Molecular Devices). Experimenters were blinded to treatment groups for all experiments.
NX218 or vehicle was delivered in the thalamic radiations region by fast focal perfusion. The system consists of syringes containing the respective solutions with tubing lines fusing to a low dead-volume manifold mounted to a micromanipulator. The tip (300-μm diameter) mounted to the manifold was located within a desired distance of less than 1 mm of the target region, with a flow rates of approximately 0.2 mL/min. Tubing lines were controlled by electrical pinch valves which were opened and closed by transistor-transistor logic signals sent out from the DigiData system and parameters set in the perfusion and recording protocol in Clampex 10.3.
Data were analyzed by measuring the slope of individual fEPSPs by linear fitting using Clampfit. The slope of fEPSPs was plotted against different intensities of stimulation (from 0 to 850 μA).

[2] = system: subchronic PCP-induced cognitive deficits in mice; assay: T-maze continuous alternation task in subchronic PCP mice; format: in vivo, Swiss CD-1 mice; details: PCP alone 30.71, control 66.43, 5 mg/kg
Description: Phenycyclidine (PCP) is an antagonist of NMDA receptor, its administration in healthy humans produces schizophrenia-like symptoms, therefore PCP is often used to mimic schizophrenia in rodents. […] In addition, brain samples were collected shorlty after the T-Maze test to measure the levels of cerebral biomarkers involved in synaptic plasticity.
Sixty (60) male Swiss CD-1 mice were purchased from Janvier Labs (Le Genest-Saint-Isle, France) one week before the start of the study for acclimation. Mice were group-housed (6-8 mice per Eurostandard type Ill cage) and maintained in a room with controlled temperature (21-22° C.) under a reversed 12 h/12 h light-dark cycle (lights on: 5:[…]; lights off: 05:30 am) with food and water available ad libitum. The weight of mice ranged from 25.9 and 36.4 g. […]
Nicotine used as a positive control was administered at a dose of 0.4 mg/kg intraperitoneally 30 minutes prior to the T-maze trial
After administration of compounds at different timepoints all animals were tested for continuous alternation task in the T-Maze. The T-maze apparatus was made of gray Plexiglas with a main stem (55-cm long×10-cm wide×20-cm high) and two arms (30-cm long×10-cm wide×20-cm high) positioned at a 90-degree angle relative to the main stem. A start box (15-cm long×10-cm wide) was separated from the main stem by a guillotine door. Horizontal doors were also provided to close specific arms during the force choice alternation task. The experimental protocol consisted in one single session that started with 1 “forced-choice” trial, followed by 14 “free-choice” trials (Gerlai, 1998). In the first “forced-choice” trial, the mouse was confined 5 s in the start arm and then released while either the left or right goal arm was blocked by closing the sliding door. Then, it walked through the maze, eventually entered the open goal arm, and then returned to the start position. Immediately after the mouse came back to the start position, the left or right goal door was opened (i.e. the two goal doors were opened), and the mouse could choose freely between the left and right goal arms (first “free choice trial”). The mouse was considered as entered in the arm when it placed its four paws in the arm. The opposite goal door was then closed until the animal returned to the start arm. Then, a second “free choice trial” began by the opening of the closed goal door (i.e. the two goal doors were opened), leaving the choice to the mouse to enter either into the right or the left arm. The session was considered finished as soon as 14 free-choice trials had been performed in less than 10 min, and the mouse was removed from the maze. The time needed to reach these 14 “free-choices” was recorded.
The percent of spontaneous alternations was calculated as number of spontaneous alternations divided by the number of free-choice trials, an index of spatial short-term working memory. The apparatus was cleaned between each animal using alcohol (70%). Urine and feces were removed from the maze. During the trials, animal handling and the visibility of the operator were minimized as much as possible. Animals were tested in a random and blind manner.

Substance: W-S-G-W-S-S-C-S-R-S-C-G [NX218] (WSGWSSCSRSCG; disulfide 7-11 (inferred))
- change of fEPSP slope vs vehicle alone (whole I/O curve) ([1]; particularly for stimulation intensities from 150 to 450 μA): significant increase
- Normalized fEPSP slope ([1]; stimulation intensity 0 µA): 0.37%
- Normalized fEPSP slope ([1]; stimulation intensity 50 µA): 26.12%
- Normalized fEPSP slope ([1]; stimulation intensity 100 µA): 54.34%
- Normalized fEPSP slope ([1]; stimulation intensity 150 µA): 87.31%
- Normalized fEPSP slope ([1]; stimulation intensity 200 µA): 99.95%
- Normalized fEPSP slope ([1]; stimulation intensity 250 µA): 107.48%
- Normalized fEPSP slope ([1]; stimulation intensity 300 µA): 111.20%
- Normalized fEPSP slope ([1]; stimulation intensity 350 µA): 118.22%
- Normalized fEPSP slope ([1]; stimulation intensity 400 µA): 118.91%
- Normalized fEPSP slope ([1]; stimulation intensity 450 µA): 121.63%
- Normalized fEPSP slope ([1]; stimulation intensity 500 µA): 121.16%
- Normalized fEPSP slope ([1]; stimulation intensity 550 µA): 122.81%
- Normalized fEPSP slope ([1]; stimulation intensity 600 µA): 121.42%
- Normalized fEPSP slope ([1]; stimulation intensity 650 µA): 124.24%
- Normalized fEPSP slope ([1]; stimulation intensity 700 µA): 124.14%
- Normalized fEPSP slope ([1]; stimulation intensity 750 µA): 121.65%
- Normalized fEPSP slope ([1]; stimulation intensity 800 µA): 120.97%
- Normalized fEPSP slope ([1]; stimulation intensity 850 µA): 121.41%
- Spontaneous alternations in T-maze ([2]; PCP + 5 mg/kg i.p. on D12, D13 and D14 (48 h, 24 h and 2 h before trial), n=10): 62% and 62.13%
- Spontaneous alternations in T-maze ([2]; PCP + 5 mg/kg i.p. on D13 (24 h before trial), n=9): 35% and 34.92%
- Spontaneous alternations in T-maze ([2]; PCP + 5 mg/kg i.p. on D14 (2 h before trial), n=10): 53% and 52.87%
